From PubChem BioAssay AID2060889 (Molecular Pharmacology Branch, DTP, NCI, 2025)
One block for each molecule: values may come before it.

Tested on: LG0567-F671-PDC complex spheroids viability
Assay: Anticancer human tumor LG0567-F671-PDC patient-derived lung adenocarcinoma cell line growth inhibition [RAS]
Details: for IC50: curve of first compound; for viability, T/C: stronger effect = lower value
Source text: RAS pathway inhibitors in Combinations in Complex Spheroids
A high-throughput screen of multi-cell type tumor spheroids was designed to identify active combinations of RAS pathway inhibitors and targeted small molecules. Complex spheroids include a stromal component modeled by human endothelial cells (HUVEC) and fibroblasts modeled by human mesenchymal stem cells (MSCs). The concentration ranges selected for each drug and investigational agent were based upon clinically achievable concentrations if the clinical Cmax of the agent was known.
Compounds. The drugs and investigational agents: abemaciclib (NSC768073), cobimetinib (NSC768068), divarasib (GDC6063, NSC841802), docetaxel (NSC628503), GDC-1971 (RLY-1971, NSC841576), gemcitabine (NSC613327), inavolisib (NSC800729), ipatasertib (NSC767898), KB-0742 (NSC834161), MRTX-1133 (NSC836407), osimertinib (NSC779217), RMC-4630 (NSC839698), RMC-6236 (NSC851965), RMC-6291 (NSC852671), Ro-3306 (NSC812927), sapanisertib (NSC764658), SN-38 (NSC673596), staurosporine (NSC755774), SY5609 (NSC837396), and tovorafenib (DAY101, NSC766906), were obtained from the National Cancer Institute (NCI) Developmental Therapeutics Program Chemical Repository. The FDA-approved anticancer drug set is available from the NCI Developmental Therapeutics Program. […] The stock solutions were prepared in dimethyl sulfoxide (DMSO, Sigma-Aldrich, St. Louis, MO, cat. D2650) at 800-fold the tested concentration and stored at -70 degrees C prior to their use. All drugs and investigational agents were tested over a range starting from a high concentration at or near the clinical Cmax and decreasing in half-log increments. If the clinical Cmax for an agent had not been determined, the highest concentration tested was 10 microM.
Cell Culture. All cells were maintained in an incubator at 37 degrees C and 5% CO2 with 95% humidity. The PDC lines were cultured according to standard operating procedures established by the NCI PDMR. All PDCs were thawed and cultured in Matrigel-coated flasks prepared with a working solution of 1X Ham's F-12 nutrient mix, without supplementation (Invitrogen, Waltham, MA, cat. 11765054), 100 U/mL penicillin-streptomycin (Invitrogen, cat. 15140122), and 2.5% Matrigel (Corning Inc., Corning, NY, cat. 354248) for the first three passages. The 362531-283-R-J2-PDC and 782815-120-R-J1-PDC lines were cultured in 6C/Colon 1B media, which includes advanced DMEM/F-12 (Thermo Fisher Scientific, cat. 12634028), 10 mM HEPES (Thermo Fisher Scientific, cat. 15630080), 1X GlutaMAX supplement (Thermo Fisher Scientific, cat. 35050061), 0.1 mg/mL primocin (InvivoGen, San Diego, CA, cat. ant-pm-2), 10% defined fetal bovine serum, heat inactivated (HyClone Laboratories Inc., Logan, UT, cat. SH30070.03HI), 50% L-WRN conditioned media (ATCC, cat. CRL-3276), 1.25 mM N-Acetyl-L-cysteine (Sigma-Aldrich, cat. A9165), 10 mM nicotinamide (Sigma-Aldrich, cat. N0636), 1X B-27 supplement (Thermo Fisher Scientific, cat. 17504044), 1X N-2 supplement (Thermo Fisher Scientific, cat. 17502048), 50 ng/mL human EGF (Thermo Fisher Scientific, cat. PHG0311), and 10 microM Y-27632 dihydrochloride (Tocris Bioscience, cat. 1254). The K12877-001-R-J1-PDC line was cultured in 6I media, which includes all 6C/Colon 1B media plus 10 ng/mL human FGF-10 (PeproTech, cat. 100-26), 1 ng/mL human FGF-2 (PeproTech, cat. 100-18B), 1 µM prostaglandin E2 (Tocris Bioscience, cat. 2296), […] hydrocortisone (Sigma-Aldrich, cat. H4001), and […] bovine insulin (Sigma-Aldrich, cat. I6634). The K86415-001-R-J1-PDC line was cultured in 6D media, which includes all 6C/Colon 1B media components minus the L-WRN conditioned media. The 485176-168-R4-J1-PDC was cultured in PANC media, which includes all 6C/Colon 1B media plus 100 ng/mL human FGF-10 (PeproTech, cat. 100-26), 500 nM SB-431542 (Selleckchem, cat. S1067), and 10 nM gastrin (Tocris Bioscience, cat. 3006). […]

[1] = second compound 0.0316 µM, first compound 0.0316 µM
[2] = second compound 0.0316 µM, first compound 0.1 µM
[3] = second compound 0.0316 µM, first compound 0.316 µM
[4] = second compound 0.0316 µM, first compound 1 µM
[5] = second compound 0.1 µM, first compound 0.0316 µM
[6] = second compound 0.1 µM, first compound 0.1 µM
[7] = second compound 0.1 µM, first compound 0.316 µM
[8] = second compound 0.1 µM, first compound 1 µM
[9] = second compound 0.316 µM, first compound 0.0316 µM
[10] = second compound 0.316 µM, first compound 0.1 µM
[11] = second compound 0.316 µM, first compound 0.316 µM
[12] = second compound 0.316 µM, first compound 1 µM
[13] = second compound 1 µM, first compound 0.0316 µM
[14] = second compound 1 µM, first compound 0.1 µM
[15] = second compound 1 µM, first compound 0.316 µM
[16] = second compound 1 µM, first compound 1 µM
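Also: spheroids exposed to compound for seven days before readout.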
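For IC50 in this document: luminescence signal used as a proxy for viable cells.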

- IC50 (second compound 0.0316 µM): 120 nM
- IC50 (second compound 0.1 µM): 84.3 nM
- IC50 (second compound 0.316 µM): 8.15 nM
- IC50 (second compound 1 µM): < 3.16 nM
- IC50 (second compound 3.16 µM): < 3.16 nM
- IC50 (second compound 10 µM): < 3.16 nM
Compound: C=CC(=O)Nc1cc(Nc2nccc(-c3cn(C)c4ccccc34)n2)c(OC)cc1N(C)CCN(C)C + C#Cc1c(F)ccc2cc(O)cc(-c3ncc4c(N5CC6CCC(C5)N6)nc(OCC56CCCN5CC(F)C6)nc4c3F)c12
- viability, T/C (second compound 0.0316 µM, first compound 0.00316 µM): 88.7%
- viability, T/C (second compound 0.0316 µM, first compound 0.01 µM): 80.7%
- viability, T/C [1]: 67.4%
- viability, T/C [2]: 54.1%
- viability, T/C [3]: 34.5%
- viability, T/C [4]: 19.1%
- viability, T/C (second compound 0.1 µM, first compound 0.00316 µM): 79.8%
- viability, T/C (second compound 0.1 µM, first compound 0.01 µM): 74.8%
- viability, T/C [5]: 66.8%
- viability, T/C [6]: 47.1%
- viability, T/C [7]: 27%
- viability, T/C [8]: 16.2%
- viability, T/C (second compound 0.316 µM, first compound 0.00316 µM): 53.4%
- viability, T/C (second compound 0.316 µM, first compound 0.01 µM): 49.3%
- viability, T/C [9]: 42.8%
- viability, T/C [10]: 28.4%
- viability, T/C [11]: 22.1%
- viability, T/C [12]: 11.3%
- viability, T/C (second compound 1 µM, first compound 0.00316 µM): 38.1%
- viability, T/C (second compound 1 µM, first compound 0.01 µM): 32.8%
- viability, T/C [13]: 28.9%
- viability, T/C [14]: 20.4%
- viability, T/C [15]: 11.9%
- viability, T/C [16]: 6.5%
- viability, T/C (second compound 3.16 µM, first compound 0.00316 µM): 20.5%
- viability, T/C (second compound 3.16 µM, first compound 0.01 µM): 17%
- viability, T/C (second compound 3.16 µM, first compound 0.0316 µM): 16.2%
- viability, T/C (second compound 3.16 µM, first compound 0.1 µM): 12.2%
- viability, T/C (second compound 3.16 µM, first compound 0.316 µM): 8.15%
- viability, T/C (second compound 3.16 µM, first compound 1 µM): 4.09%
- viability, T/C (second compound 10 µM, first compound 0.00316 µM): 13.5%
- viability, T/C (second compound 10 µM, first compound 0.01 µM): 10.9%
- viability, T/C (second compound 10 µM, first compound 0.0316 µM): 9.25%
- viability, T/C (second compound 10 µM, first compound 0.1 µM): 6.54%
- viability, T/C (second compound 10 µM, first compound 0.316 µM): 4.27%
- viability, T/C (second compound 10 µM, first compound 1 µM): 2.83%

- IC50 (second compound 0.00316 µM): < 31.6 nM
- IC50 (second compound 0.01 µM): < 31.6 nM
- IC50 (second compound 0.0316 µM): < 31.6 nM
- IC50 (second compound 0.1 µM): < 31.6 nM
- IC50 (second compound 0.316 µM): < 31.6 nM
- IC50 (second compound 1 µM): < 31.6 nM
Compound: CC(Nc1ccc2c(c1)OCCn1cc(N3C(=O)OCC3C(F)F)nc1-2)C(N)=O (centres undefined) + C=CC(=O)N1CCN(c2nc(OCC3CCCN3C)nc3c(F)c(-c4nc(N)cc(C)c4C(F)(F)F)c(Cl)cc23)C(C)C1
- viability, T/C (second compound 0.00316 µM, first compound 0.0316 µM): 15.2%
- viability, T/C (second compound 0.00316 µM, first compound 0.1 µM): 10.8%
- viability, T/C (second compound 0.00316 µM, first compound 0.316 µM): 10.1%
- viability, T/C (second compound 0.00316 µM, first compound 1 µM): 7.83%
- viability, T/C (second compound 0.00316 µM, first compound 3.16 µM): 7.01%
- viability, T/C (second compound 0.00316 µM, first compound 10 µM): 5.88%
- viability, T/C (second compound 0.01 µM, first compound 0.0316 µM): 12%
- viability, T/C (second compound 0.01 µM, first compound 0.1 µM): 8.85%
- viability, T/C (second compound 0.01 µM, first compound 0.316 µM): 8.39%
- viability, T/C (second compound 0.01 µM, first compound 1 µM): 5.85%
- viability, T/C (second compound 0.01 µM, first compound 3.16 µM): 5.99%
- viability, T/C (second compound 0.01 µM, first compound 10 µM): 4.79%
- viability, T/C [1]: 10.2%
- viability, T/C [2]: 9.26%
- viability, T/C [3]: 7.97%
- viability, T/C [4]: 5.73%
- viability, T/C (second compound 0.0316 µM, first compound 3.16 µM): 5.76%
- viability, T/C (second compound 0.0316 µM, first compound 10 µM): 4.64%
- viability, T/C [5]: 13%
- viability, T/C [6]: 8.09%
- viability, T/C [7]: 6.28%
- viability, T/C [8]: 5.63%
- viability, T/C (second compound 0.1 µM, first compound 3.16 µM): 5.99%
- viability, T/C (second compound 0.1 µM, first compound 10 µM): 4.82%
- viability, T/C [9]: 10.5%
- viability, T/C [10]: 8.03%
- viability, T/C [11]: 7.03%
- viability, T/C [12]: 5.34%
- viability, T/C (second compound 0.316 µM, first compound 3.16 µM): 6.43%
- viability, T/C (second compound 0.316 µM, first compound 10 µM): 5.3%
- viability, T/C [13]: 11.4%
- viability, T/C [14]: 9.66%
- viability, T/C [15]: 6.71%
- viability, T/C [16]: 6.57%
- viability, T/C (second compound 1 µM, first compound 3.16 µM): 7.01%
- viability, T/C (second compound 1 µM, first compound 10 µM): 5.23%
